Experimental data: patent EP1698638A1, “Lipopeptides having pharmaceutical activity” (Technische Universität Berlin, priority 2005, dated 2006)

Key:
ATCC 6258 (QC) = assay: microdilution assay (NCCLS), inhibitory concentration (IC); format: cell-based, Candida krusei; settings: Table 4 series, RPMI-1640 medium
Candida spp. II = assay: as above; format: cell-based; settings: RPMI-1640 medium
Experimental: (§1) More specifically, a determination of inhibitory concentration (IC) of hassallidin A and hassallidin B for various fungi, Candida species and Candida strains were performed with different media (RPMI-1640 or SAB or AM3) in a microdilution assay by following the guidelines in NCCLS documents M^38-P^25 and M27-A2^26 carried out as follows Each substance was dissolved with 100% dimethyl sulfoxide (Serva, Heidelberg, Germany) to give a stock solution of 3.2 mg/ml followed by nine log2 dilution steps with the solvent. This served as a 100-fold concentrated dilution series ranging from 1.6 mg/ml to 0.003 mg/ml of the test substance. The final concentration of the test substance was 16 µg/ml to 0.031 µg/ml.
(§2) Therefore the 100-fold concentrated dilution series (with 100% DMSO) was diluted to the final concentration by two dilution steps: • (1) Each concentration of the 100-fold concentrated substance was diluted with test medium for 1:50 (for ex.: adding of 13 µl of the test substance to 637 µl test medium). • (2) 100 µl of each 1:50 diluted concentration was filled in a row of wells of a microtitre plate. One well was without the substance but with the 1:50 diluted solvent serving as growth control.
(§3) A further 1:2 dilution of the antifungal was made by the inoculation of each well with 100 µl of the test organism, which was suspended in the test medium. The remaining well of the row was used for sterility control of the medium. The inoculum was strictly prepared according the NCCLS^25 guidelines, resulting in […] for Candida-species and Cryptococcus neoformans. For hyphomycetes CFU's were tenfold higher (see NCCLS). ^26 The growth of the hyphomycetes respectively the inhibition was measured by visual reading with the help of a reading mirror; scoring was done according to NCCLS :^26 score 0 corresponds to a optical clear well or an IC95 or higher, score 1 corresponds to an inhibition of 80 percent (IC80) and the score 2 of the NCCLS definition corresponds to the IC50 values in the tables. The growth of the yeasts was measured spectrophotometrically by a microplate reader (MR 5000, Dynatech laboratories) at 630 nm displaying the optical density (OD). The percent inhibition IC50, IC80 or IC95 (corresponding the scores of 2, 1 and 0) was calculated by the following formula: (100−[(ODof the well−ODof the medium)] × 100)/((ODof the growth control−ODof the medium).) [formula] Table 3. Test series for determining IC values of hassallidin A and B in different media using Candida albicans and Candida krusei. The IC values were measured after 24 h and 48 h at 30 °C.

[1] = system: Aspergillus fumigatus RKI 584/00; assay: as above; format: cell-based; settings: RPMI-1640 medium
Experimental: as §1, §2, §3

[2] = system: Candida albicans ATCC 90028; assay: as above; format: cell-based; settings: RPMI-1640 medium
Experimental: as §1, §2, §3

[3] = system: L 929 (murine aneuploid fibrosarcoma) cells; assay: cytotoxicity assay, IC-Tox50 Kit, resazurin (2nd test); format: cell-based; settings: down to a concentration of 1.0 µg/mL; decrease of resazurin at 595 nm, 24 h
Experimental: 2nd test Cytotoxicity assays were further performed using the IC-Tox50 Kit from CCS (Cell Culture Service, Hamburg) according to the manufacturers recommendations in 96-well microtitre plates. L 929 (murine aneuploid fibrosarcoma) cells were used and the activity was followed by recording the decrease of the blue pigment resazurin at 595 nm. Down to a concentration of 1.0 µg/mL a hundred percent inhibition of cell activity was determined for hassallidin A and hassallidin B. The cytotoxity assays using deposited L 929 cells were prepared as follows: • Each well contained 140 µl RPMI-1640 medium, 100 µl resazurin solution and 10 µl test solution of hassallidin A or hassallidin B at different concentrations. To obtain 10 µl test solution, 1 µl / 2 µl / 3 µl or 4µl of a 50% methanolic stock solution (25 µg/ 100 µl) were mixed with 9 µl / 8 µl / 7 µl or 6 µl 50% MeOH. For unhindered cell activity, 10 µl 50% MeOH solution was used as test solution. Solutions of 1µg Na2SeO3 / 10 µl (50% MeOH) and 2 µg Na2SeO3 /10 µl (50% MeOH) were used as positive control. • The absorption difference (t0h-t24h) of resazurin metabolised by L 929 cells is graphically represented in figure 6.

Ustilago maydis = assay: disk diffusion assay on malt agar plates; format: cell-based; settings: 10 µg in 30 µL 50% MeOH per disk
Streptomyces versicolor = assay: disk diffusion assay on LB-agar plates; format: cell-based; settings: 10 µg in 30 µL 50% MeOH per disk
Experimental: (§4) The antifungal activity of the compounds according to the present invention, in particular hassallidin A and hassallidin B, was verified for Aspergillus fumigatus and Candida albicans by minimum inhibitory concentration (MIC) data in a serial dilution test. For each fungus six testing wells of a microtiter plate were prepared with 240 µL medium (Sigma RPMI-1640), 10 µL inoculum suspension and 50 µL fungicide solution (50% MeOH) of different concentrations. Inoculum preparation was carried out by guideline of NCCLS.^25 The fungicide solution preparation took place in a series of twofold dilutions from a stock solution of 92 µg/mL starting with 4.6 µg/50 µL down to 0.14 µg/50 µL. One well was prepared without antifungal agent for unhindered growth as control. The microtiter plates were incubated for Candida albicans and Aspergillus fumigatus at 35 °C for 24 h and 48 h, respectively. Tests were run in triplicates. Inhibition of growth was assessed by comparing the fungal growth of the test samples with the control well by determination of optical density at 595 nm in a microplate reader. The concentration of the well at highest dilution that was still free from growth was assigned the minimum inhibitory concentration (MIC in µg/mL). […] No activities were observed by using Bacillus subtilis, Streptomyces versicolor or Escherchia coli in disk diffusion assays on LB-agar plates with 10 µg hassallidin A in 30 µL 50% MeOH per disk.

Bacillus subtilis = assay: disk diffusion assay on LB-agar plates; format: cell-based; settings: 10 µg in 30 µL 50% MeOH per disk
Experimental: as §4

Escherchia coli = assay: disk diffusion assay on LB-agar plates; format: cell-based; settings: 10 µg in 30 µL 50% MeOH per disk
Experimental: as §4

Aspergillus niger = assay: disk diffusion assay on malt agar plates; format: cell-based; settings: 10 µg in 30 µL 50% MeOH per disk

hassallidin A
IC80 (ATCC 6258 (QC); 35°C/24h): 8 µg/mL | IC95 (ATCC 6258 (QC); 35°C/24h): 8 µg/mL | IC80 (ATCC 6258 (QC); 35°C/48h): 16 µg/mL | IC50 (Candida spp. II; 35°C/24h): 8 µg/mL | IC80 (Candida spp. II; 35°C/24h): 8 µg/mL | IC95 (Candida spp. II; 35°C/24h): 8 µg/mL | IC50 (Candida spp. II; 35°C/48h): 8 µg/mL | IC80 (Candida spp. II; 35°C/48h): 8 µg/mL | IC95 (Candida spp. II; 35°C/48h): 8 µg/mL | IC50 ([1]; 35°C/24h): 2 µg/mL | IC80 ([1]; 35°C/24h): 2 µg/mL | IC95 ([1]; 35°C/24h): 2 µg/mL | IC80 ([1]; 35°C/48h): 4 µg/mL | IC95 ([1]; 35°C/48h): 4 µg/mL | IC50 ([2]; 35°C/24h): 8 µg/mL | IC80 ([2]; 35°C/24h): 8 µg/mL | IC95 ([2]; 35°C/24h): 8 µg/mL | IC50 ([2]; 35°C/48h): 8 µg/mL | IC80 ([2]; 35°C/48h): 8 µg/mL | IC95 ([2]; 35°C/48h): 8 µg/mL | inhibition of cell activity [3]: a hundred | antifungal activity in disk diffusion assay (Ustilago maydis): precise antifungal activity | activity in disk diffusion assay (Streptomyces versicolor): No activities | activity in disk diffusion assay (Bacillus subtilis): No activities | activity in disk diffusion assay (Escherchia coli): No activities | antifungal activity in disk diffusion assay (Aspergillus niger): precise antifungal activity

hassallidin B
inhibition of cell activity [3]: a hundred | antifungal activity in disk diffusion assay (Ustilago maydis): precise antifungal activity | antifungal activity in disk diffusion assay (Aspergillus niger): precise antifungal activity
